Data on five molecules can be found in doi:10.1101/2025.03.19.644003v1 (biorxiv, 2025).

For assay [1], the target named is VHL:GEMIN3aa41-268 (VBC with purified GEMIN3aa41-268) (Homo sapiens, UniProt P40337+Q9UHI6). As to the kind of experiment: SPR, immobilised GEMIN3aa41-268, pre-formed VBC:compound complex as analyte. In kind it is binding.
The next assay deals with VHL/EloB/EloC (VBC) (Homo sapiens, UniProt P40337). As to the kind of experiment: SPR, immobilised His-tagged VBC. In kind it is binding. On the technique in general: In SPR one partner is held on a chip, and binding of the other changes the refractive index at the surface.
Sequence of VHL/EloB/EloC (VBC) (Q15369 whole entry): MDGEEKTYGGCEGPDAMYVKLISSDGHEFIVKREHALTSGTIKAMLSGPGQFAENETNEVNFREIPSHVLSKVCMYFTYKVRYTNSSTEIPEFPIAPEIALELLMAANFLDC
Sequence of VHL/EloB/EloC (VBC) (Q15370 whole entry, further chain): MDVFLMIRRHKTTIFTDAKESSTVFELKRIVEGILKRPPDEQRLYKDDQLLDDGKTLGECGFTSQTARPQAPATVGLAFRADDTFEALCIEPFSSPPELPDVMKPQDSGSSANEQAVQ
Sequence of VHL/EloB/EloC (VBC) (P40337 whole entry): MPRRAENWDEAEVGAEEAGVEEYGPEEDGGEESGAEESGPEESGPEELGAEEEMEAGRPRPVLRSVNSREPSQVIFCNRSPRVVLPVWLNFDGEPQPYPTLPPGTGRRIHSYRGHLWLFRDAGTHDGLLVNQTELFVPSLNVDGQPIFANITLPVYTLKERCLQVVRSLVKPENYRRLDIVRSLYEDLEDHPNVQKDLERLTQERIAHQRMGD
In the next assay the target is NanoLuc-VHL (Homo sapiens, UniProt P40337). Kind of assay: NanoBRET tracer displacement, live HEK293T cells. The format is cell-based. On the technique in general: BRET reads energy transfer from a luciferase to a nearby fluorophore.
Sequence of NanoLuc-VHL (P40337 whole entry): as above

Each structure is given as a SMILES string. pIC50, pKd: −log10 of the molar value.

Sequence of VHL:GEMIN3aa41-268 (VBC with purified GEMIN3aa41-268) (P40337 whole entry, the tested form may be a part): as the sequence (P40337 whole entry) above
Sequence of VHL:GEMIN3aa41-268 (VBC with purified GEMIN3aa41-268) (Q9UHI6 41-268): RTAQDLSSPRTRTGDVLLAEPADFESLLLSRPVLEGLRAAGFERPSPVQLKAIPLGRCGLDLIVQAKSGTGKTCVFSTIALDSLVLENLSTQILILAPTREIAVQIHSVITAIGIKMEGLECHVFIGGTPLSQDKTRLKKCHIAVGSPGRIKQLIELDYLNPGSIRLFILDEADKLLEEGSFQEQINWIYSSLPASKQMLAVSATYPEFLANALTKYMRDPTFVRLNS
Sequence of VHL:GEMIN3aa41-268 (VBC with purified GEMIN3aa41-268) (Q15369 whole entry, further chain, the tested form may be a part): as the sequence (Q15369 whole entry) above
Sequence of VHL:GEMIN3aa41-268 (VBC with purified GEMIN3aa41-268) (Q15370 whole entry, further chain, the tested form may be a part): as the sequence (Q15370 whole entry, further chain) above

For the molecule `CC(C)(C)[C@H](NC(=O)c1cnn2c1OCCC2)C(=O)N1C[C@H](O)C[C@H]1C(=O)NCc1ccc(-c2ccc(Cl)cc2)cc1` [compound 4, N-((S)-1-((2S,4R)-2-(((4’-chloro-[1,1’-biphenyl]-4-yl)methyl)carbamoyl)-4-hydroxypyrrolidin-1-yl)-3,3-dimethyl-1-oxobutan-2-yl)-6,7-dihydro-5H-pyrazolo[5,1-b][1,3]oxazine-3-carboxamide], the pKd was 6.31 in assay [1] and 6.70 at VHL/EloB/EloC (VBC). `CC(C)(C)[C@H](NC(=O)c1cnn2c1OCCC2)C(=O)N1C[C@H](O)C[C@H]1C(=O)NCc1ccc(-c2ccccc2)cc1` [compound 6, N-((S)-1-((2S,4R)-2-(([1,1’-biphenyl]-4-ylmethyl)carbamoyl)-4-hydroxypyrrolidin-1-yl)-3,3-dimethyl-1-oxobutan-2-yl)-6,7-dihydro-5H-pyrazolo[5,1-b][1,3]oxazine-3-carboxamide] had a pKd at VHL/EloB/EloC (VBC) of 6.77.

Molecule `CC(C)(C)[C@H](NC(=O)c1cnn2c1OCCC2)C(=O)N1C[C@H](O)C[C@H]1C(=O)NCc1ccc(-c2ccccc2Cl)cc1` [compound 5, N-((S)-1-((2S,4R)-2-(((2’-chloro-[1,1’-biphenyl]-4-yl)methyl)carbamoyl)-4-hydroxypyrrolidin-1-yl)-3,3-dimethyl-1-oxobutan-2-yl)-6,7-dihydro-5H-pyrazolo[5,1-b][1,3]oxazine-3-carboxamide] gave a pKd at VHL/EloB/EloC (VBC) of 7.13. This pKd lies 0.36 log units higher than the previous one. As to `CC(C)(C)[C@H](NC(=O)c1cnn2c1OCCC2)C(=O)N1C[C@H](O)C[C@H]1C(=O)NCc1ccc(-c2ccc(Cl)cc2Cl)cc1` [compound 1, N-((S)-1-((2S,4R)-2-(((2’,4’-dichloro-[1,1’-biphenyl]-4-yl)methyl)carbamoyl)-4-hydroxypyrrolidin-1-yl)-3,3-dimethyl-1-oxobutan-2-yl)-6,7-dihydro-5H-pyrazolo[5,1-b] [1,3] oxazine-3-carboxamide], the negative logarithm of the Kd (pKd) in assay [1] is 7.16; at VHL/EloB/EloC (VBC) it was 6.66. The molecule also gave a pIC50 on NanoLuc-VHL of 6.06. With `CC(C)(C)[C@H](NC(=O)c1cnn2c1CCCC2)C(=O)N1C[C@H](O)C[C@H]1C(=O)NCc1ccc(-c2ccc(Cl)cc2Cl)cc1` [compound 3, N-((S)-1-((2S,4R)-2-(((2’,4’-dichloro-[1,1’-biphenyl]-4-yl)methyl)carbamoyl)-4-hydroxypyrrolidin-1-yl)-3,3-dimethyl-1-oxobutan-2-yl)-4,5,6,7-tetrahydropyrazolo[1,5-a]pyridine-3-carboxamide], the results for the pKd (in assay [1]; at VHL/EloB/EloC (VBC)) were 7.14 and 6.25, respectively.

One may read the pKd as the Kd on a negative log10 scale, so that one unit is a factor of ten. Read a high pKd as a small Kd. Usually pIC50 stands for −log10 of the IC50, conventionally taken in molar units. Read a low pIC50 as a high IC50.
